The nature of series [1]: Plasma stability, murine plasma. Format: in vitro ADME. To be noted: 1 μM, 120 min.
Another series concerns Mabs ATCC19977. In words: MBC determination by CFU counting.
The nature of series [2]: Nephelometry kinetic solubility screen in PBS. Format: physicochemical.
In series [3] the test system is HEP 93 liver cancer cell line. To be noted: cited from earlier work.
For series [4] the following is noted: oral administration, mice; cited from earlier work.
The conditions of series [5]: oral administration, rats; cited from earlier work.
In the next series the test system is Mabs. The note with it: enantiomers; cited from earlier work.

Like-named read-outs stand apart in the source and are kept apart here.

`O=C(N[C@H](Cc1ccccc1)C(=O)Nc1ccccc1N1CCS(=O)(=O)CC1)c1ccccc1F` [Compound 24]: the “stability in murine plasma” value in series [1] is reported as “improved stability”.
As for `O=C(N[C@H](Cc1ccccc1)C(=O)Nc1ccccc1N1CCS(=O)(=O)CC1)c1cccs1` [Compound 20], the “MBC99 as multiple of MIC90” value with Mabs ATCC19977 was 2 X MIC90.
Consider `O=C(N[C@H](Cc1ccccc1)C(=O)Nc1ccccc1N1CC[S+]([O-])CC1)c1ccccc1F` [Compound 15], for which the “MBC99 as multiple of MIC90” value against Mabs ATCC19977 is listed as 2 X MIC90. Further, the “solubility relative to MMV688845” value in series [2] is listed as “approximately 5 times”.
For the compound `O=C(N[C@H](Cc1ccccc1)C(=O)Nc1ccccc1N1CCOCC1)c1cccs1` [MMV688845, Nα-2-thiophenoyl-D-phenylalanine-2-morpholinoanilide], the “cytotoxicity HEP 93” value in series [3] is recorded as “non-cytotoxic”. Moreover, in the series with Mabs ATCC19977, the “MBC99 as multiple of MIC90” value came to 8 X MIC90. For the same compound, the “reduction of viable bacteria” value in the series with Mabs ATCC19977 (at 6.25 μM (derivatives: 6.25 μM and higher)) is “no reduction”. The drug plasma levels result in series [4] and in series [5] was “low drug plasma levels” throughout. Besides, in series [1], the “stability in murine plasma” value is on record as “stronger decline in concentration than compound 24”. Moreover, in the series on Mabs, the “activity against Mabs” value is “shows activity”.
